Results on 32 compounds are retold here after patent US8785481B2, “Ether benzotriazole derivatives” (Merck Sharp & Dohme Corp., priority 2010, dated 2014).

Molecules are shown by their SMILES.

The assay deals with T1, recombinant human mGluR2 (Homo sapiens, UniProt Q14416).
T1 construct: expressed in transfected cells
T1 sequence (Q14416 19-872): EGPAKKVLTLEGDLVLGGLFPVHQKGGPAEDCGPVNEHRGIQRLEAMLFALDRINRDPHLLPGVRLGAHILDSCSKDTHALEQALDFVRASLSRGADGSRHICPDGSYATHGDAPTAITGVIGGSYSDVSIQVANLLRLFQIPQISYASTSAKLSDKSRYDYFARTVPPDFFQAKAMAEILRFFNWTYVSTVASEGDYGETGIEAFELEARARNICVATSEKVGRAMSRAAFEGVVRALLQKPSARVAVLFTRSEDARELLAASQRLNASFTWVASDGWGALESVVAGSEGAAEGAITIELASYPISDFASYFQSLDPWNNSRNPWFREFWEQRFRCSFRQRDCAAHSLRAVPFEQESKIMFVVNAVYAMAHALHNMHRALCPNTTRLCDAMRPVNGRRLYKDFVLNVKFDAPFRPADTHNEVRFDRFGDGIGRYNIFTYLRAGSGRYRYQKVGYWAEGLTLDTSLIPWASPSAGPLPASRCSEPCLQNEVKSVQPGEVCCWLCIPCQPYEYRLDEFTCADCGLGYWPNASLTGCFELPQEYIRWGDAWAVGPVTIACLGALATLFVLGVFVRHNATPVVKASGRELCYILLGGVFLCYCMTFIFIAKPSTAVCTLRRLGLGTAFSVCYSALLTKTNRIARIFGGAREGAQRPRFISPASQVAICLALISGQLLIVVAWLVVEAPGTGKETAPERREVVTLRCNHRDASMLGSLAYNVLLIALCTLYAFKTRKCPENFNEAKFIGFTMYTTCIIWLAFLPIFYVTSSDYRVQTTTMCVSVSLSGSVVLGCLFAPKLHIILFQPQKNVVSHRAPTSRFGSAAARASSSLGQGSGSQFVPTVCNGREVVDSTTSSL
The experiment in a line: FLIPR Ca2+ mobilization assay, potentiation of glutamate (EC20) response. It counts as cell-based. The following applies: CHO dhfr- cells expressing human mGluR2 and Gα16, EC20 glutamate (900 nM). The method, then: Potencies are determined as follows. The compounds of the present invention may be tested in a fluorescence laser imaging plate reader (FLIPR) based assay. This assay is a common functional assay to monitor Ca^2+ mobilization in whole cells expressing recombinant receptor coupled with a promiscuous G-protein. CHO dhfr- cells stably expressing recombinant human mGluR2 and Gα16 loaded with Fluo-4 AM (Invitrogen, Carlsbad Calif.) are treated with varying concentrations of compounds and the Ca^2+ response is monitored on a FLIPR384 (Molecular Devices, Sunnydale Calif.) for agonist activity. The potentiation response is monitored after a subsequent addition of an EC20 concentration of glutamate (900 nM). The maximum calcium response at each concentration of compound for agonism or potentiation are plotted as dose responses curves fitted with a four parameters logistic equation giving EC50 and Hill coefficient using the iterative non linear curve fitting software program.
A general note: A change in cytosolic calcium serves as a functional read-out for many receptors and channels.
One may read the EC50 as the midpoint of the concentration-response curve. With `CC(C)(C)C(O)COc1ccc2c(nnn2CC2CC2)c1Br` (racemic) [Example 8-1, (±)-1-{[4-Bromo-1-(cyclopropylmethyl)-1H-benzotriazol-5-yl]oxy}-3,3-dimethylbutan-2-ol], the EC50 is 72 nM.

Consider `COc1ccc2c(nnn2CC2CCCC2)c1Br` [Example 1-3, 4-bromo-1-(cyclopentylmethyl)-5-methoxy-1H-benzotriazole], for which the EC50 came out at 93 nM.

For the compound `CCOc1ccc2c(nnn2CC(C)(C)C)c1Br` [Example 1-4, 4-bromo-1-(2,2-dimethylpropyl)-5-ethoxy-1H-benzotriazole], the EC50 amounted to 32 nM.

Take `COc1ccc2c(nnn2CCCC(F)(F)F)c1Br` [Example 1-11, 4-bromo-5-methoxy-1-(4,4,4-trifluorobutyl)-1H-benzotriazole]: the EC50 worked out at 51 nM.

`CC(C)[C@@H](C)n1nnc2c(Br)c(O)c(Br)cc21` [Example 2-4, 4,6-dibromo-1-[(1R)-1,2-dimethylpropyl]-1H-benzotriazol-5-ol]: the EC50 was found to be 373 nM.

Take `CC(C)(C)Cn1nnc2c(Br)c(OCc3cccc(-c4ccc(O)c(C(=O)O)c4)c3)ccc21` [Example 3-3, 3′-({[4-bromo-1-(2,2-dimethylpropyl)-1H-benzotriazol-5-yl]oxy}methyl)-4-hydroxy-biphenyl-3-carboxylic acid]: the EC50 stood at 3.5 nM.

For the compound `CC(Oc1ccc2c(nnn2CC(C)(C)C)c1Br)c1ccccc1` (centres unmarked) [Example 3-15, 4-bromo-1-(2,2-dimethylpropyl)-5-(1-phenylethoxy)-1H-benzotriazole], the EC50 amounted to 91 nM.

For `Cc1cnc(C#N)c(-c2cccc(COc3ccc4c(nnn4CC(C)(C)C)c3Br)c2)c1` [Example 3-26, 3-[3-({[4-bromo-1-(2,2-dimethylpropyl)-1H-benzotriazol-5-yl]oxy}methyl)phenyl]-5-methylpyridine-2-carbonitrile], the EC50 was found to be 16 nM.

Take `CC(C)(C)Cn1nnc2c(Br)c(OCc3cccc(-c4c[nH]nc4C#N)c3)ccc21` [Example 3-34, 4-[3-({[4-bromo-1-(2,2-dimethylpropyl)-1H-benzotriazol-5-yl]oxy}methyl)phenyl]-1H-pyrazole-3-carbonitrile]: the EC50 was found to be 49 nM.

For the compound `CC(C)(C)Cn1nnc2c(Br)c(OCc3cccc4ccnn34)ccc21` [Example 4-5, 4-bromo-1-(2,2-dimethylpropyl)-5-(pyrazolo[1,5-a]pyridin-7-ylmethoxy)-1H-benzotriazole], the 50% effective concentration (EC50) worked out at 42 nM.

As for `CC(C)(C)Cn1nnc2c(Br)c(OCc3ncccn3)ccc21` [Example 4-7, 4-bromo-1-(2,2-dimethyl-propyl)-5-(pyrimidin-2-ylmethoxy)-1H-benzotriazole], the EC50 was 521 nM.

Turning to `CC(C)(C)Cn1nnc2c(Br)c(OCc3cccc(N4CCCCC4)n3)ccc21` [Example 4-27, 4-bromo-1-(2,2-dimethylpropyl)-5-[(6-piperidin-1-ylpyridin-2-yl)methoxy]-1H-benzotriazole], the EC50 came out at 288 nM.

For `CC(C)(C)Cn1nnc2c(Br)c(OCc3ncccc3F)ccc21` [Example 4-42, 4-bromo-1-(2,2-dimethyl-propyl)-5-[(3-fluoropyridin-2-yl)methoxy]-1H-benzotriazole], the EC50 amounted to 41 nM.

Turning to `CC(C)(C)Cn1nnc2c(Br)c(OCc3ccccc3Cl)ccc21` [Example 4-45, 4-bromo-5-[(2-chlorobenzyl)oxy]-1-(2,2-dimethylpropyl)-1H-benzotriazole], the EC50 was 65 nM.

Regarding `CC(C)(C)OC(=O)N1CCC(COc2ccc3c(nnn3CC3CC3)c2Cl)CC1` [Example 4-63, tert-butyl 4-({[4-chloro-1-(cyclopropylmethyl)-1H-benzotriazol-5-yl]oxy}methyl) piperidine-1-carboxylate], the EC50 is 34 nM.

As for `C[C@H](O)C(=O)N1CCC(COc2ccc3c(nnn3CC3CC3)c2Br)CC1` [Example 4-65, (2S)-1-[4-({[4-bromo-1-(cyclopropylmethyl)-1H-benzotriazol-5-yl]oxy}methyl)piperidin-1-yl]-1-oxopropan-2-ol], the EC50 was 188 nM.

Consider `CC(C)(C)OC(=O)N1CCC(COc2ccc3c(nnn3CC3CC3)c2Br)C1` (centres unmarked) [Example 4-67, tert-butyl 3-({[4-bromo-1-(cyclopropylmethyl)-1H-benzotriazol-5-yl]oxy}methyl) pyrrolidine-1-carboxylate], for which the EC50 amounted to 20 nM.

Turning to `CC1(COc2ccc3c(nnn3CC3CC3)c2C(F)(F)F)CCN(C(=O)CO)CC1` [Example 4-79, 2-[4-({[1-(cyclopropylmethyl)-4-(trifluoromethyl)-1H-benzotriazol-5-yl]oxy}methyl)-4-methyl-piperidin-1-yl]-2-oxoethanol], the EC50 was determined as 7 nM.

In the case of `N#CCOc1ccc2c(nnn2CC2CC2)c1Br` [Example 5-1, {[4-Bromo-1-(cyclopropylmethyl)-1H-benzotriazol-5-yl]oxy}acetonitrile], the EC50 stood at 281 nM.

Consider `COc1cccc(COc2ccc3c(nnn3CC3CC3)c2Br)n1` [Example 6-1, 4-Bromo-1-(cyclopropylmethyl)-5-[(6-methoxypyridin-2-yl)methoxy]-1H-benzotriazole], for which the EC50 was found to be 10 nM.

Take `CC(C)(C)C(=O)COc1ccc2c(nnn2CC2CC2)c1Br` [Example 7-1, 1-{[4-Bromo-1-(cyclopropylmethyl)-1H-benzotriazol-5-yl]oxy}-3,3-dimethylbutan-2-one]: the EC50 was 34 nM.

On to `CC(C)(C)/C(COc1ccc2c(nnn2CC2CC2)c1Br)=N/O` [Example 9-1, 1-{[4-Bromo-1-(cyclopropylmethyl)-1H-benzotriazol-5-yl]oxy}-N-hydroxy-3,3-dimethylbutan-2-imine], for which the EC50 turned out to be 84 nM.

Consider `FC(F)CN1CCC(Oc2ccc3c(nnn3CC3CC3)c2Br)CC1` [Example 10-47, 4-bromo-1-(cyclopropylmethyl)-5-{[1-(2,2-difluoroethyl)piperidin-4-yl]oxy}-1H-benzotriazole], for which the EC50 came to 424 nM.

On to `Brc1c(OCc2cscn2)ccc2c1nnn2CC1CC1` [Example 10-56, 4-bromo-1-(cyclopropylmethyl)-5-(1,3-thiazol-4-ylmethoxy)-1H-benzotriazole], for which the EC50 was determined as 150 nM.

As to `Brc1c(OCC2COCCO2)ccc2c1nnn2CC1CC1` (centres unmarked) [Example 10-73, 4-bromo-1-(cyclopropylmethyl)-5-(1,4-dioxan-2-ylmethoxy)-1H-benzotriazole], the EC50 is 415 nM.

For `C=CCOc1ccc2c(nnn2CC2CC2)c1Br` [Example 10-120, 4-bromo-1-(cyclopropylmethyl)-5-(prop-2-en-1-yloxy)-1H-benzotriazole], the EC50 was 60 nM.

On to `Brc1c(OCC2CCC2)ccc2c1nnn2CC1CC1` [Example 10-140, 4-bromo-5-(cyclobutylmethoxy)-1-(cyclopropylmethyl)-1H-benzotriazole], for which the EC50 was 39 nM.

With `O=C1CCC(Oc2ccc3c(nnn3CC3CC3)c2Br)CC12CC2` (centres unmarked) [Example 10-171, 7-{[4-bromo-1-(cyclopropyl-methyl)-1H-benzotriazol-5-yl]oxy}spiro[2.5]octan-4-one], the EC50 was found to be 87 nM.

Take `FC(F)(F)CN1CCN(CCOc2ccc3c(nnn3CC3CC3)c2Br)CC1` [Example 10-220, 4-bromo-1-(cyclopropylmethyl)-5-{2-[4-(2,2,2-trifluoroethyl)piperazin-1-yl]ethoxy}-1H-benzotriazole]: the EC50 came out at 222 nM.

Regarding `CCOc1ccc2c(nnn2CC2CC2)c1Br` [Example 10-253, 4-bromo-1-(cyclopropylmethyl)-5-ethoxy-1H-benzotriazole], the EC50 was determined as 530 nM.

Consider `Brc1c(OCCn2cccn2)ccc2c1nnn2CC1CC1` [Example 10-275, 4-bromo-1-(cyclopropylmethyl)-5-[2-(1H-pyrazol-1-yl)ethoxy]-1H-benzotriazole], for which the EC50 turned out to be 214 nM.

In the case of `FC(F)(F)c1c(OCc2ccccc2)ccc2c1nnn2CC1CC1` [Example 11-1, 5-(Benzyloxy)-1-(cyclopropylmethyl)-4-(trifluoromethyl)-1H-benzotriazole], the EC50 is 9 nM.
